Experiments:
CDK4/CycD1 = CDK4/CycD1 (Homo sapiens, UniProt P11802); assay: Kinase activity test (mobility shift assay, EZ Reader), CDK4
Protocol: The tested compounds were subjected to CDK4 and CDK6 kinase IC50 values test.
• (1) Preparing a 1.3× enzyme solution containing enzyme, substrate and cofactor as shown below. • (2) Adding 15 μL of 1.3× enzyme solution to each well and incubating for 30 min at room temperature. • (3) Starting the reaction by adding 5 μL of 4×ATP solution, with each test well containing the listed components and a final volume of 20 μL. • (4) Incubating for 150 minutes and then stopping the reaction by adding 75 μL of buffer (containing 0.5 M EDTA). • (5) Reading the data from each test well by EZ for analysis.
Percentage inhibition was calculated using the read conversion ratio (CR) according to the formula below:
The wells treated with DMSO were used as positive control (positive control) and the wells without enzyme were used as negative control (negative control).

CDK6/CyclinD3 = CDK6/CyclinD3 (Homo sapiens, UniProt Q00534); assay: Kinase activity test (mobility shift assay, EZ Reader), CDK6; assay type: biochemical; details: CDK6/CyclinD3 5.00 nM, ATP 350 μM, FL-Peptide34
[1] = tested on: Human breast cancer cell MCF-7; assay: Cellular antiproliferative assay (MTT, 5 days), MCF-7; assay type: cell-based; details: Homo sapiens, MCF7, 120 h, MCF-7 cells, 5 days incubation
Protocol: (§1) Human breast cancer cell MCF-7, ovarian cancer cell A2780, human mantle cell lymphoma cell JEKO-1. DMEM medium (Bio-Channel), DMSO (dimethyl sulfoxide), MTT (thiazolyl blue), 0.25% EDTA-Tripsin (tryptic digest), 1×PBS (phosphate buffer, PH7.2), 96-well plate (Corning), fetal bovine serum (FBS), 10,000 U/mL penicillin-G/streptomycin, high-speed cryo-centrifuge (EPPENDORF 5810R), enzyme-linked immunoassay (Tecan Spark).
(§2) • A) Tumor cells were cultured in DMEM (high sugar with 10% FBS and 100 U/mL penicillin-G/streptomycin) at 37° C., 5% CO2 and saturated humidity until 80-90% dense. • B) Removed the culture medium from 10 cm Petri dishes; • C) Rinsed the cells once with 10 ml 1×PBS; • D) Added 4 ml 0.25% EDTA-Tripsin into 37° C., 5% CO2 incubator for trypsin digestion for 5 minutes, transferred to 15 ml centrifuge tube, centrifuged at 200 g for 5 minutes, discarded the supernatant to get cell precipitate; • E) Resuspended with 4 ml DMEM medium, counted and adjust to 50,000 cells/ml. • F) Added cell suspension to 96-well plate with 100 μL per well volume and incubated overnight at 37° C., 5% CO2 incubator.
(§3) • A) Preparation of gradient dilution solution of the tested compound: the test compound was configured into 1 mM reservoir solution.
(§4) • A) Taking the cell culture plate and adding 10 μL of 5 mg/ml MTT in the biosafety cabinet; • B) Putting the cell culture plate back into the incubator and continued incubation for 3 hours; • C) Taking the cell culture plate and removing the culture medium, adding 100 μL isopropanol (containing 0.4 mM HCl, 0.1% NP-40), and shaking the bed at room temperature for 30 min; and • D) Determining the absorbance value by selecting 570 nm on a TECAN enzyme-linked immunoassay detector.
(§5) The % Cell Viability was calculated using the following formula:
(§6) [formula] • Lum_HC: 0.1% DMSO control cell reading • Lum_Sample: cell readings with compound added • Lum_LC: Blank medium reading

[2] = tested on: human mantle cell lymphoma cell JEKO-1; assay: Cellular antiproliferative assay (MTT, 5 days), JEKO-1; assay type: cell-based; details: Homo sapiens, 120 h, JEKO-1 cells, 5 days incubation
Protocol: as §1, §2, §3, §4, §5, §6

[3] = tested on: ovarian cancer cell A2780; assay: Cellular antiproliferative assay (MTT, 5 days), A2780; assay type: cell-based, human; details: Homo sapiens, 120 h, A2780 cells, 5 days incubation
Protocol: as §1, §2, §3, §4, §5, §6

Chain of CDK6/CyclinD3 (Q00534 whole entry, species assumed): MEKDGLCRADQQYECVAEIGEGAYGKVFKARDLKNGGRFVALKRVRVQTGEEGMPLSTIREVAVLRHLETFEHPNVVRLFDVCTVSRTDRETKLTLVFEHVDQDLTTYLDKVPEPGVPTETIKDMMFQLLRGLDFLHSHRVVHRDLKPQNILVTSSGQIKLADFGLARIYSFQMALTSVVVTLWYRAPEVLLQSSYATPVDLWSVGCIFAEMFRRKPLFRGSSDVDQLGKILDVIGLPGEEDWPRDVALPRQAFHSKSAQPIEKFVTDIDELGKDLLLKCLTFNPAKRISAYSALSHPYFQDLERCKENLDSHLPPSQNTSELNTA
Chain of CDK6/CyclinD3 (P30281 whole entry partner, species assumed): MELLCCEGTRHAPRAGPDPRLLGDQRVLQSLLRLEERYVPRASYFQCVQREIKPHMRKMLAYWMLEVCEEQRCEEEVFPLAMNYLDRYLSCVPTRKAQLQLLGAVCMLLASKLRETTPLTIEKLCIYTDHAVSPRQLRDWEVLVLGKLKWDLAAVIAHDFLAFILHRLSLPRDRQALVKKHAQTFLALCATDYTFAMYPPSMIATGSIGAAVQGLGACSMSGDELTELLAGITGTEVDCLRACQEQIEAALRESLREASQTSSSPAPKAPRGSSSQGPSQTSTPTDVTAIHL
Chain of CDK4/CycD1 (P11802 whole entry, species assumed): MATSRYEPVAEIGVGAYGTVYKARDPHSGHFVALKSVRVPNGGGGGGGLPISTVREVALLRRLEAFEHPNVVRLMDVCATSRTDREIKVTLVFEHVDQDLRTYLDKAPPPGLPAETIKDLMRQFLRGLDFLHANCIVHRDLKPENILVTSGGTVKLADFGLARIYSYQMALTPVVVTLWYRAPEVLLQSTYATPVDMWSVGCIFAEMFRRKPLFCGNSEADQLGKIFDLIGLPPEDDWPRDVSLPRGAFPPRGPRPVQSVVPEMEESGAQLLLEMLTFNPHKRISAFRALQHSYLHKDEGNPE
Chain of CDK4/CycD1 (P24385 whole entry partner, species assumed): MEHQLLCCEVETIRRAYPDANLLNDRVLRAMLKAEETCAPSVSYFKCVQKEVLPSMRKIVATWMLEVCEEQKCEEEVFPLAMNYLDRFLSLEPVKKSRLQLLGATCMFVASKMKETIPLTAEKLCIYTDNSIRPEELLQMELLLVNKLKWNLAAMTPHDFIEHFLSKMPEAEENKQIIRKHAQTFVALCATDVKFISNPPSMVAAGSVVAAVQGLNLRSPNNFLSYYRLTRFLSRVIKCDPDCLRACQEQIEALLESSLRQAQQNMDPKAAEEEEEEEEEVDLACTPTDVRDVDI

Structure (SMILES): CC(C)N1CCOc2c(F)cc(-c3nc(NC4CCOCC4)ncc3F)cc21 [TA-8, 5-fluoro-4-(8-fluoro-4-isopropyl-3,4-dihydro-2H-benzo[b][1,4]oxazin-6-yl)-N-(tetrahydro-2H-pyran-4-yl)pyrimidin-2-amine]
- IC50 (CDK4/CycD1): 21.4 nM
- IC50 (CDK6/CyclinD3): 67.3 nM

Structure (SMILES): COC(=O)N1CCC[C@@H](Nc2ncc(Cl)c(-c3cc(F)c4c(c3)N(C(C)C)CCO4)n2)C1 [TA-10, methyl (R)-3-((5-chloro-4-(8-fluoro-4-isopropyl-3,4-dihydro-2H-benzo[b][1,4]oxazin-6-yl)pyrimidin-2-yl)amino)piperidine-1-carboxylate]
- IC50 (CDK4/CycD1): 57.6 nM
- IC50 (CDK6/CyclinD3): 206 nM

Structure (SMILES): CC(C)n1c(N2CCCC2=O)nc2c(F)cc(-c3nc(N[C@@H]4CCOC[C@H]4O)ncc3Cl)cc21 [TA-54]
- IC50 (CDK6/CyclinD3): > 500 nM

Structure (SMILES): CC(C)n1c(N(C)C)nc2c(F)cc(-c3nc(N[C@H]4CC[C@@H](NS(C)(=O)=O)CC4)ncc3Cl)cc21 [TB-4]
- IC50 (CDK6/CyclinD3): > 500 nM

Structure (SMILES): CN1CCCn2c1nc1c(F)cc(-c3nc(N[C@@H]4CCOC[C@H]4O)ncc3C(F)(F)F)cc12 [TB-41, (3S,4R)-4-((4-(9-fluoro-1-methyl-1,2,3,4-tetrahydrobenzo[4,5]imidazo[1,2-a]pyrimidin-7-yl)-5-(trifluoromethyl)pyrimidin-2-yl)amino)tetrahydro-2H-pyran-3-ol]
- IC50 [1]: 500 to 2000 nM
- IC50 (CDK6/CyclinD3): > 500 nM
- IC50 [2]: 500 to 2000 nM
- IC50 [3]: 500 to 2000 nM

Structure (SMILES): CN1CCCn2c1nc1c(F)cc(-c3nc(N[C@@H]4CCOC[C@H]4O)ncc3F)cc12 [TB-42, (3S,4R)-4-((5-fluoro-4-(9-fluoro-1-methyl-1,2,3,4-tetrahydrobenzo[4,5]imidazo[1,2-a]pyrimidin-7-yl)pyrimidin-2-yl)amino)tetrahydro-2H-pyran-3-ol]
- IC50 [1]: ≤ 500 nM
- IC50 [2]: ≤ 500 nM
- IC50 [3]: ≤ 500 nM

Structure (SMILES): CN1CCn2c1nc1c(F)cc(-c3nc(N[C@@H]4CCOC[C@H]4O)ncc3Cl)cc12 [TB-45, (3S,4R)-4-((5-chloro-4-(8-fluoro-1-methyl-2,3-dihydro-1H-benzo[d]imidazo[1,2-a]imidazol-6-yl)pyrimidin-2-yl)amino)tetrahydro-2H-pyran-3-ol]
- IC50 [1]: ≤ 500 nM
- IC50 [2]: ≤ 500 nM
- IC50 [3]: ≤ 500 nM

Structure (SMILES): CN1C(=O)CCn2c1nc1c(F)cc(-c3nc(N[C@@H]4CCOC[C@H]4O)ncc3Cl)cc12 [TB-46, 7-(5-chloro-2-(((3S,4R)-3-hydroxytetrahydro-2H-pyran-4-yl)amino)pyrimidin-4-yl)-9-fluoro-1-methyl-3,4-dihydrobenzo[4,5]imidazo[1,2-a]pyrimidin-2(1H)-one]
- IC50 [1]: ≤ 500 nM
- IC50 [2]: ≤ 500 nM
- IC50 [3]: ≤ 500 nM

Structure (SMILES): CC1CCN(C)c2nc3c(F)cc(-c4nc(NC5CCN(S(C)(=O)=O)CC5)ncc4Cl)cc3n21 (centres unmarked) [TB-51, 5-chloro-4-(9-fluoro-1,4-dimethyl-1,2,3,4-tetrahydrobenzo[4,5]imidazo[1,2-a]pyrimidin-7-yl)-N-(1-(methylsulfonyl)piperidin-4-yl)pyrimidin-2-amine]
- IC50 [1]: ≤ 500 nM
- IC50 [2]: ≤ 500 nM
- IC50 [3]: ≤ 500 nM

Structure (SMILES): CN1CCn2c1nc1c(F)cc(-c3nc(NC4CCN(S(C)(=O)=O)CC4)ncc3Cl)cc12 [TB-52, 5-chloro-4-(8-fluoro-1-methyl-2,3-dihydro-1H-benzo[d]imidazo[1,2-a]imidazol-6-yl)-N-(1-(methylsulfonyl)piperidin-4-yl)pyrimidin-2-amine]
- IC50 [1]: ≤ 500 nM
- IC50 [2]: ≤ 500 nM
- IC50 [3]: ≤ 500 nM

Structure (SMILES): CNS(=O)(=O)c1ccc(Nc2ncc(Cl)c(-c3cc(F)c4nc5n(c4c3)C(C)CCN5C)n2)cc1 (centres unmarked) [TB-53, 4-((5-chloro-4-(9-fluoro-1,4-dimethyl-1,2,3,4-tetrahydrobenzo[4,5]imidazo[1,2-a]pyrimidin-7-yl)pyrimidin-2-yl)amino)-N-methylbenzenesulfonamide]
- IC50 [1]: ≤ 500 nM
- IC50 [2]: ≤ 500 nM
- IC50 [3]: ≤ 500 nM

Structure (SMILES): CC(C)n1c(N2CCOC2=O)nc2c(F)cc(-c3nc(Nc4ccc(S(=O)(=O)NC5(C#N)CC5)cc4)ncc3Cl)cc21 [TB-68]
- IC50 (CDK6/CyclinD3): > 500 nM

Structure (SMILES): CC(C)n1c(N2CCOC2=O)nc2c(F)cc(-c3nc(Nc4ccc(S(=O)(=O)NCCN(C)C)cc4)nc4[nH]cnc34)cc21 [TB-70]
- IC50 [1]: ≤ 500 nM
- IC50 [2]: ≤ 500 nM
- IC50 [3]: ≤ 500 nM

Reference: patent US20260078114A1, “COMPOUND USED AS INHIBITOR OF CDK4 KINASE AND USE THEREOF” (TYK MEDICINES, INC., priority 2022, published 2026)
